Laboratory results as given in PubChem BioAssay AID387.

Target: Farnesyl pyrophosphate synthase (Homo sapiens) (UniProt P14324)
Experiment: FDPS binders by thermal shift, biophysical, DSF, SYPRO orange, purified protein (AID 387)
Details: at 10 µM, protein 2 µM, buffer 10 mM HEPES, pH 7.5, NaCl 150 mM, MgCl4 50 µM, stronger effect = higher value

Chain of Farnesyl pyrophosphate synthase (Homo sapiens) (P14324 whole entry, looked up): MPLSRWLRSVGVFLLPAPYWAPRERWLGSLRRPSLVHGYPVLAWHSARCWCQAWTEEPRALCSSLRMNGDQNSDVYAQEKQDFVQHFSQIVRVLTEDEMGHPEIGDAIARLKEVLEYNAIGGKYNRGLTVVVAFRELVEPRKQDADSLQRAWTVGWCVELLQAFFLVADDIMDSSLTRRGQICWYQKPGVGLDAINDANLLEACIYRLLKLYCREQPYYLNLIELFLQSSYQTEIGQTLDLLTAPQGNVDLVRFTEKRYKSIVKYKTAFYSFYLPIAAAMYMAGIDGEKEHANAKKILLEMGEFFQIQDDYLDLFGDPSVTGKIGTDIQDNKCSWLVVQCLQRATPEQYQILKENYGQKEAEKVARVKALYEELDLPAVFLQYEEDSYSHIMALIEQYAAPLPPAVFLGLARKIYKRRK

## O=[P+](O)C(O)(Cc1cccnc1)P(=O)(O)O (stereo unspecified)
  Tm shift: 4.13 Celsius
